Laboratory results: PMC9474773, “PARP targeted Auger emitter therapy with [^125I]PARPi-01 for triple-negative breast cancer” (EJNMMI Research, 2022)
Where “and” joins values, the source holds several entries; their conditions need not be identical. Equal entries are not always repeated.

Experiments:
[1] = set-up: method as in PMID 29630818; conditions: cited from earlier work
cytochrome P450 (CYP450) = tested on: cytochrome P450 (CYP450); set-up: method as in PMID 28736501, PMID 29717476; conditions: cited from earlier work
[2] = set-up: method as in PMID 27169564; conditions: cited from earlier work
[3] = tested on: subcutaneous MDA-MB-231 xenografts; assay: Ex vivo biodistribution by gamma counter; format: in vivo, NOD/SCID mice
Method: Female NOD/SCID mice at 5–6 weeks of age (Janvier, France) was used for developing subcutaneous TNBC tumour. Animals were housed in 20–24 °C in a 12 h day light cycle. For each mouse, 3 × 10^6 MDA-MB-231 cells were suspended in a 1:1 (volume) mixture of Culture media: Matrigel® matrix (Corning®, Product No: 356237). Mice were inoculated with this cell suspension (max 200 µl) subcutaneously in the right flank. Tumour growth was monitored daily using calliper measurements. Tumour volume was calculated daily according to the formula Tumourvolume=TumourLength×Tumourbreadth^2×0.52
Upon reaching of a tumour volume of 500 mm^3, animals were proceeded for experiments. For biodistribution study animals were administered with [^123I]PARPi-01 (n = 3). For therapy studies animals were randomized for control (n = 10) or [^125I]PARPi-01 administration (n = 10). Randomisation was done based on equivalent distribution of tumour volumes. In addition to the daily calliper measurements image analysis of CT based tumour volumes was blinded to avoid bias. Animals were sacrificed upon completion of biodistribution study or upon reaching a humane end point for the therapy study. Humane end point is determined as reaching of either of the following conditions: 15 mm tumour diameter, 1500 mm^3 tumour volume, or development of ulcers/ascites.
For biodistribution, animals imaged at 4 h p.i. were killed 24 h p.i., while the ones scanned 24 h p.i. were killed 5 days p.i.. Subsequently, organs were excised, weighed, and assayed for radioactivity in a gamma counter. Mean tumour and organ uptake was determined from decay-corrected tissue radioactivity normalized to injected dose and tissue sample weight (%ID/g tissue wet weight).

[4] = tested on: subcutaneous MDA-MB-231 tumours; assay: Small animal SPECT/CT imaging; format: in vivo, NOD/SCID mice
Method: Imaging was performed with a small animal SPECT/CT system (X-Cube and γ-Cube, Molecubes, Gent, Belgium). Mice bearing subcutaneous MDA-MB-231 tumours upon reaching tumour volume of 500 mm^3 were intravenously administered with [^123I]PARPi-01 (9.3 ± 2.7 MBq) via lateral tail-vein using a catheter under 1.5 to 2.5% isoflurane anaesthesia in oxygen at 0.8 L/min. [^123I]PARPi-01 was prepared by diluting the tracer in 0.9% NaCl to a total volume of 100 μL. Administered dose was calculated by subtraction of decay-corrected syringe activity post-injection from pre-injection activity. The mice were scanned either at 4 h or at 24 h post injection (p.i.). The CT acquisition settings were as follows: default high resolution protocol, 440 uA, 50 kVp, 32 ms exposure time, and 1080° rotation in a spiral mode with 960 exposures/360°; the duration of each CT scan was 5 min. A SPECT scan was initiated at the end of each CT scan. The SPECT acquisition settings were as follows: 7-headed camera equipped with a general-purpose collimator with 28 pinholes (i.e., 0.75 mm apertures and a radius of rotation of 20 mm), helical scan with 82 bed positions; the total duration of each SPECT scan was 30 min. Both CT and SPECT axial fields of view were selected at 105 mm. During the scans, the isoflurane concentration was adapted to achieve a respiratory rate between 75 and 50 breaths per minute. […]

[5] = set-up: method as in PMID 34318678; conditions: intracellular distribution not considered; cited from earlier work
[6] = 24 h p.i., i.v., decay-corrected, n = 3

## O=C(c1cc(Cc2n[nH]c(=O)c3ccccc23)ccc1F)N1CCN(C(=O)C2CC2)CC1 [Olaparib]
[1]
  Log Poct: 1.95
Cytochrome P450 (CYP450)
  fraction metabolised in liver by CYP450: 84%
[2]
  dose limiting toxicities: anaemia, thrombocytopenia, and neutropenia

## O=C(c1ccc([123I])cc1)N1CCN(C(=O)c2cc(Cc3n[nH]c(=O)c4ccccc34)ccc2F)CC1 [[^123I]PARPi-01]
[3]; 24 h p.i.
  Tumour: Blood Ratio: 1.3
[3]; [6]
  liver uptake: 2.5 %ID/g and 2.49 ± 0.6 %ID/g
  tumour uptake: 0.2 %ID/g
[3]; 5 d p.i.
  activity in organs of animals sacrificed at 5 d p.i.: no quantifiable activity
[4]; 4 h and 24 h p.i.
  clearance pathway: hepatobiliary clearance
[4]; 24 h p.i.
  deiodination in vivo (thyroid uptake): strong deiodination

## O=C(c1cccc([123I])c1)N1CCN(C(=O)c2cc(Cc3n[nH]c(=O)c4ccccc34)ccc2F)CC1 [[^123I]MAPi]
[5]
  estimated absorbed dose in liver: 0.0044 Gy/MBq
  estimated absorbed dose in thyroid: 0.0041 Gy/MBq
